{
  "source": "patent US20160184274A1",
  "about": "“Methods for inhibiting mesenchymal phenotype after epithelial-to-mesenchymal transition” (Fibrostatin, S.L., priority 2014, published 2016)",
  "key": {"[1]": {"target": "T1, trimeric intracellular GPBP (Homo sapiens, UniProt Q9Y5P4)", "T1 construct": "made in house; host or cells: Sf9 insect cells (baculovirus), purified from cell lysates", "T1 sequence (Q9Y5P4 1-624)": "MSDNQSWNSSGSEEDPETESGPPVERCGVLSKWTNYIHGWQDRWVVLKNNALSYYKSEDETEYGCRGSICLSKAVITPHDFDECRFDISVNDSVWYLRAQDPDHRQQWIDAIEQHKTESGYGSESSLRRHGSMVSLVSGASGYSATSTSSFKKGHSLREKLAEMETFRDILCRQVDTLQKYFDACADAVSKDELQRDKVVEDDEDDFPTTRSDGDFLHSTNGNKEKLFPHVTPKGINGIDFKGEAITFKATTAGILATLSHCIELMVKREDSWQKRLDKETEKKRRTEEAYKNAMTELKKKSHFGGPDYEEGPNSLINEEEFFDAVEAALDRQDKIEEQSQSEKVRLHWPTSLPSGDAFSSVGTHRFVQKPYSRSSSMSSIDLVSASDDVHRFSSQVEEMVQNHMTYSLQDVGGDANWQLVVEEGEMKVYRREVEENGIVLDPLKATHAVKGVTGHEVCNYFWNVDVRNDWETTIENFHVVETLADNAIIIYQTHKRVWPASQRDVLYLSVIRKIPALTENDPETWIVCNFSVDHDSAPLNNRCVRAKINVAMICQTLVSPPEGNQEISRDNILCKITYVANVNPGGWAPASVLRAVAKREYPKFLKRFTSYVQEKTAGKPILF", "assay": "In vitro phosphorylation assay with trimeric intracellular GPBP", "type": "biochemical", "conditions": "T12 50 μM; autophosphorylation, γ[32P]ATP; FIG. 2", "procedure": "FIG. 2. […] Multimeric extracellular and trimeric intracellular GPBP were purified by affinity chromatography and subsequent gel filtration chromatography, and used for in vitro phosphorylation assays in absence (−) or presence (+) of T12 (50 μM). Reactions were subjected to SDS-PAGE, Western blot onto PVDF membrane and autoradiography, and further protein detected with anti-FLAG primary antibodies. Autoradiography and anti-FLAG® bands were quantified with WCIF IMAGEJ® software, and the normalized kinase activity estimated. Shown are normalized kinase activities. […] Samples were analyzed in triplicate and the data represents the Mean (±SEM) of three independent assays.\nFLAG®-tagged GPBP was expressed using Bac-to-Bac® Baculovirus Expression System. […] Finally, purified protein was quantified with Bio-Rad Protein Assay and stored at −20° C. […]\nTypically, about 270 ng of purified FLAG®-GPBP protein, either extracellular multimer or intracellular trimer, were incubated in presence or absence of T12 […] in a kinase assay buffer containing 25 mM disodium β-glycerophosphate, 8 mM MgCl2, 0.5 mM EDTA, 0.5 mM EGTA, 1 mM DTT, 5 mM MnCl2 during 10 min at 37° C. […] Then reactions were stopped with SDS-PAGE loading buffer and heat (95° C., 3 min) and analyzed by SDS-PAGE, electro-transference to PVDF membrane (Merck Millipore) and autoradiography. […]"}, "[2]": {"test_system": "A549 tumors displaying mesenchymal phenotype", "assay": "A549 xenograft, tumors with mesenchymal phenotype", "type": "in vivo", "conditions": "T12 20 mg/kg/day in drinking water; athymic mice; FIG. 10A", "description": "FIG. 10. […] Control, n=43; T12, n=18."}},
  "data": [
    {"smiles": "COc1ccc(-c2ccc(-c3cccc(C)c3)c(C)c2)c(CCC(=O)O)c1", "note": "[T12, 3-[4″-methoxy-3,2′-dimethyl-(1,1′;4′,1″)terphenyl-2″-yl] propionic acid]", "values": [
      {"measurement": "normalized kinase activity of GPBP", "setting": "[1]", "result": "not intracellular GPBP trimers"},
      {"measurement": "tumor growth (relative tumor volume)", "setting": "[2]", "result": "very effective slowing the growth"}
    ]}
  ]
}
